These results are taken from patent publication US12534748B2, “Engineered beta-subunit of tryptophan synthase for production of non-canonical amino acids” (California Institute of Technology, priority 2015, dated 2026).

The target in experiment [1] is T1, Pyrococcus furiosus TrpB variant PfTrpB^0B2 (P12L, E17G, I68V, T292S, F274S, T321A), SEQ ID NO: 12 (Pyrococcus furiosus, UniProt Q8U093, E17G/F274S/I68V/P12L/T292S/T321A).
T1 sequence (Q8U093 with tags, fused parts or gaps P12L/E17G/I68V/F274S/T292S/T321A): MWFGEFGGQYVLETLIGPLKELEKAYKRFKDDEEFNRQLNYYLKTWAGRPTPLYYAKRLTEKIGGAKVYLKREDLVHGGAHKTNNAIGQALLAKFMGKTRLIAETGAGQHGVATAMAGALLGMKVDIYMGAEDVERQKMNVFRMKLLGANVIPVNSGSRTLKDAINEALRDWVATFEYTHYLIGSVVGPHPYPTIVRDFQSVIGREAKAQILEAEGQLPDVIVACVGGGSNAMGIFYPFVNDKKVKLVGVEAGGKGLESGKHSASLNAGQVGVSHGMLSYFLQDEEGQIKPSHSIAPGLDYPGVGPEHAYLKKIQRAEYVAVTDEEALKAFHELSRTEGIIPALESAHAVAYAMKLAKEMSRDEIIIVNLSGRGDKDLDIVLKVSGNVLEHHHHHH
In words: Tryptophan formation from L-serine and indole, kinetics of PfTrpB^0B2. As to the method:
(§1) Cloning, Expression, and Purification of PfTrpA and PfTrpB. The genes encoding PfTrpB (UNIPROT ID Q8U093) and PfTrpA (UNIPROT ID Q8U094) were obtained as gBlocks and cloned into pET22(b)+ for expression in E. coli BL21 E. cloni EXPRESS cells (Lucigen). Heterologous protein expression of PfTrpA and PfTrpB was performed in Terrific Broth with 100 μg/mL ampicillin (TBamp) and induced with 500 mM IPTG (final concentration 1 mM). PfTrpB was purified via a HisTrap HP column. PfTrpA was purified via a Q HP HiTrap column (flow-through), followed by ammonium sulfate precipitation, and hydrophobic interaction chromatography on a phenyl Sepharose HP HiTrap column (FIG. 3).
(§2) Kinetics and UV-Vis Spectroscopy.
(§3) PfTrpB^4D11 served as template for a final round of random mutagenesis, for which 1,144 clones were screened.

Experiment [2] concerns the target T2, Pyrococcus furiosus TrpB variant PfTrpB^2G9 (T292S), SEQ ID NO: 10 (Pyrococcus furiosus, UniProt Q8U093, T292S).
T2 sequence (Q8U093 with tags, fused parts or gaps T292S): T1 sequence (Q8U093 with tags, fused parts or gaps P12L/E17G/I68V/F274S/T292S/T321A) with L12P, G17E, V68I, S274F, A321T
In words: Tryptophan formation from L-serine and indole, kinetics of PfTrpB^2G9. Type of experiment: biochemical. As to the method:
as §1, §2

Experiment [3] has as its target T3, Pyrococcus furiosus TrpB variant PfTrpB^4D11 (E17G, I68V, T292S, F274S, T321A), SEQ ID NO: 16 (Pyrococcus furiosus, UniProt Q8U093, E17G/F274S/I68V/T292S/T321A).
T3 sequence (Q8U093 with tags, fused parts or gaps E17G/I68V/F274S/T292S/T321A): T1 sequence (Q8U093 with tags, fused parts or gaps P12L/E17G/I68V/F274S/T292S/T321A) with L12P
In words: Tryptophan formation from L-serine and indole, kinetics of PfTrpB^4D11. Type of experiment: biochemical. The following applies: 75° C. How it is done:
as §1, §2, §3

Residue numbers refer to the chain shown, from its start.

The term kcat denotes the maximal rate divided by the concentration of active sites. In general, Km refers to the substrate concentration at which the rate is half of its maximum. Take `c1ccc2[nH]ccc2c1` [indole]: the kcat in experiment [1] (75° C.) stood at 2.9 s⁻¹; in experiment [2] (75° C.), 1.1 s⁻¹; in experiment [3], 2.2 s⁻¹. Moreover, the kcat increase in experiment [1] (relative to PfTrpB) is recorded as 9.4 fold. For the same compound, in experiment [2] (compared with PfTrpB), the increase in kcat amounted to 3.5 fold. In addition, the Km in experiment [2] (read-out: KM, indole, 75° C.) came to 14 µM; in experiment [3] (read-out: KM, indole), 11 µM.
